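Compound exposure: 48 hours, 5 concentrations, 96-well plates. GI50 marks 50% less growth. At the TGI there is no net growth.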
Key:
Assay in all cases: inhibition of tumour cell growth, NCI panel, 48 h
[1] = system: CAKI-1 renal
[2] = system: COLO 205 colon
[3] = system: HCT-116 colon
[4] = system: MALME-3M melanoma
[5] = system: MDA-MB-435
[6] = system: OVCAR-3 ovarian
[7] = system: SF-295 CNS
[8] = system: SK-MEL-2 melanoma
[9] = system: SN12C renal
[10] = system: SR leukemia

Structure (SMILES) | TGI [1] [µM] | TGI [2] [µM] | TGI [3] [µM] | TGI [4] [µM] | TGI [5] [µM] | TGI [6] [µM] | TGI [7] [µM] | TGI [8] [µM] | TGI [9] [µM] | TGI [10] [µM] | GI50 [2] [µM] | GI50 [4] [µM] | GI50 [5] [µM] | GI50 [6] [µM] | GI50 [7] [µM] | GI50 [8] [µM] | GI50 [9] [µM]
O=C(O)CCSc1ncnc2nc[nH]c12 | > 100 | > 100 | > 100 | > 100 | > 100 | > 100 | > 100 | > 100 | > 100 | – | – | – | – | – | – | – | –
CC(=O)N=S(NC(=O)c1ccc(C)cc1)C(Cl)(Cl)Cl (stereo unspecified) | – | 45.3 | > 100 | 96 | 40.7 | 52 | > 100 | – | > 100 | – | – | – | – | – | – | – | –
COC(=O)[C@@H]1[C@H]2CC[C@]3(C)[C@@H](OC(C)=O)CC[C@H]3[C@@H]2CC[C@H]1C1(C)SCCS1 | > 100 | 29.3 | 46.3 | 38.9 | 35.3 | 88.5 | 73.6 | 40 | 37 | – | – | – | – | – | – | – | –
COc1ccc(C(=O)/C=C/c2ccc(OCCCCCCCCCCOc3ccc(/C=C/C(=O)c4ccc(OC)c(OC)c4)cc3)cc2)c(OC)c1 | > 100 | > 100 | > 100 | – | > 100 | – | > 100 | > 100 | > 100 | > 100 | – | – | – | – | – | – | –
CN1C2CCC1C(CO)C(=O)C2 (stereo unspecified) | > 100 | 32.8 | – | 66.5 | > 100 | > 100 | > 100 | > 100 | – | 75.7 | – | – | – | – | – | – | –
CC1=[N+]([O-])C2(CCCC2)N(O)C1(C)C | > 100 | > 100 | > 100 | > 100 | > 100 | > 100 | > 100 | > 100 | > 100 | – | – | – | – | – | – | – | –
CCc1ccc(OCc2ccccc2C(=O)Nc2ccc3nc(C)cc(N)c3c2)cc1 | – | 0.692 | – | 3.35 | 2.77 | 3.04 | 3.13 | 3.39 | 3.02 | – | 0.24 | 1.74 | 1.43 | 1.62 | 1.65 | 1.79 | 1.51
O=C1CN(c2ccccc2)C(=O)C1C(=O)Nc1ccc(Cl)c(Cl)c1 (stereo unspecified) | – | 20.4 | – | – | – | 12.6 | 14 | – | 17.1 | 5.87 | – | – | – | – | – | – | –
Nc1cc2nc(-c3ccccc3)cn2cn1 | > 100 | > 100 | > 100 | 70 | > 100 | > 100 | > 100 | > 100 | > 100 | – | – | – | – | – | – | – | –
CC12CCC(=O)[C@@]1(C)CCCC2=O (stereo partly specified) | > 100 | > 100 | > 100 | > 100 | – | – | > 100 | > 100 | > 100 | > 100 | – | – | – | – | – | – | –
Cn1c(=O)c2[nH]c(Nc3cccc(Cl)c3)nc2n(C)c1=O | > 10 | > 10 | – | > 10 | > 10 | – | > 10 | – | > 10 | – | – | – | – | – | – | – | –
C[C@@H](CCO)OC1OC(COC(=O)C(C)(C)C)C(OC(=O)C(C)(C)C)C(OC(=O)C(C)(C)C)C1OC(=O)C(C)(C)C (stereo partly specified) | > 100 | > 100 | > 100 | – | > 100 | > 100 | 76.7 | > 100 | > 100 | > 100 | – | – | – | – | – | – | –

From PubChem BioAssay (NCI)
